# Laboratory results: patent US20260191835A1, “COMBINATIONS COMPRISING A MENIN-MLL INHIBITOR AND AT LEAST ONE OTHER THERAPEUTIC AGENT” (JANSSEN PHARMACEUTICA NV, priority 2022, published 2026)
# Tested on: MOLM-13 cells
# Experiment: In vitro proliferation (Cell Titer Glo, 6 days) of Compound 51 in combination with gilteritinib, midostaurin, idarubicin or decitabine, MOLM-13
# Type: cell-based, human
# Design: key to maxR call (synergy/antagonism), combination with Gilteritinib on MOLM-13 cell proliferation / Synergy/antagonism call (maxR test), MOLM-13 Cell Proliferation: synergy is indicated by “**”; antagonism is indicated by “*”; no asterisk: absence of any asterisk indicates an additive effect
# Protocol: 3) In Vitro Proliferation—Menin-MLL Inhibitor in Combination with FLT3 Inhibitor (Gilteritinib or Midostaurin), DNA Intercalating Agent (Idarubicin) or Hypomethylating Agent (Decitabine)
# The effect of Compound 51 in combination with gilteritinib, midostaurin, idarubicin or decitabine was determined in proliferation assays.
# AML cell lines MOLM-13, OCI-AML3 and MV4-11 were purchased from DSMZ. MOLM-13 were grown in RPMI medium supplemented with 10% Fetal Bovine Serum (FBS) and 1% penicillin/streptomycin. MV4-11 cells were grown in IMDM medium supplemented with 10% FBS and 1% penicillin/streptomycin. OCI-AML3 cells were cultured in 80-90% alpha-MEM (with or without ribo- and deoxyribonucleosides)+10-20% FBS. All cell lines were cultured at 37° C. in 5% CO2 atmosphere.
# AML cell lines (10-20×10^3 cells/well) were seeded in 96-well plates and grown for 6 days in serum (10%)-containing medium in the presence or absence of inhibitors at the indicated concentrations. Proliferation was analyzed by means of a Cell Titer Glo assay using the […] (Promega, Madison, WI, USA), according to the manufacturer's instructions. Data are mean with standard deviation from two to four independent experiments in technical triplicates.
# R-based Biochemically Intuitive Generalized Loewe (BIGL) model implemented with a highest single agent (HSA) null model. Specifically, the BIGL methodology was applied to calculate drug-drug interactions (Van der Borght, K., Tourny, A., Bagdziunas, R. et al. BIGL: Biochemically Intuitive Generalized Loewe null model for prediction of the expected combined effect compatible with partial agonism and antagonism. Sci Rep 7, 17935 (2017); Thas, O., Tourny, A., Verbist, B., Hawinkel, S., Nazarov, M., Mutambanengwe, K., & Bijnens, L. Statistical detection of synergy: New methods and a comparative study. Pharmaceutical Statistics (2021)).
# Synergy matrix results of the BIGL analysis of the cell line data with HSA as mean model calculated on the basis of the cellular metabolic activity using Cell Titer-Glo assay. Bootstrap confidence intervals are indicated. Effect sizes and their confidence intervals are shown. […] No significant average effect if zero is included in the interval.
# [1] = Compound 51 0.01 μm, Gilteritinib 0.01 μM
# [2] = Compound 51 0.05 μm + Decitabine 0.015 μM
# [3] = Compound 51 0.05 μm + Decitabine 0.15 μM
# [4] = Compound 51 0.05 μm + Idarubicin 0.001 μM
# [5] = Compound 51 0.05 μm + Midostaurin 0.006 μM
compound,measurement,setting,value
CC(=O)N1CCC(CN2CC[C@@H](Cc3cn(-c4ccc(F)cc4C(=O)N(C)C(C)C)c4cncc(C)c34)C2)CC1 [Compound 51],"Effect size (BIGL, HSA null model), MOLM-13 Cell Proliferation",Compound 51 0.0001 μm + Idarubicin 0.0005 μM,−0.05
same,"Effect size (BIGL, HSA null model), MOLM-13 Cell Proliferation",Compound 51 0.0001 μm + Idarubicin 0.001 μM,−0.02
same,"Effect size (BIGL, HSA null model), MOLM-13 Cell Proliferation",Compound 51 0.0001 μm + Idarubicin 0.0025 μM,0.07
same,"Effect size (BIGL, HSA null model), MOLM-13 Cell Proliferation",Compound 51 0.0001 μm + Idarubicin 0.005 μM,−0.1
same,"Effect size (BIGL, HSA null model), MOLM-13 Cell Proliferation",Compound 51 0.0001 μm + Idarubicin 0.05 μM,0.03
same,"Effect size (BIGL, HSA null model), MOLM-13 Cell Proliferation",Compound 51 0.0001 μm + Idarubicin 0.5 μM,0.02
same,"Effect size (BIGL, HSA null model), MOLM-13 Cell Proliferation",Compound 51 0.0001 μm + Midostaurin 0.0012 μM,−0.07
same,"Effect size (BIGL, HSA null model), MOLM-13 Cell Proliferation",Compound 51 0.0001 μm + Midostaurin 0.006 μM,−0.02
same,"Effect size (BIGL, HSA null model), MOLM-13 Cell Proliferation",Compound 51 0.0001 μm + Midostaurin 0.025 μM,0.05
same,"Effect size (BIGL, HSA null model), MOLM-13 Cell Proliferation",Compound 51 0.0001 μm + Midostaurin 0.05 μM,−0.06
same,"Effect size (BIGL, HSA null model), MOLM-13 Cell Proliferation",Compound 51 0.0001 μm + Midostaurin 0.1 μM,−0.04
same,"Effect size (BIGL, HSA null model), MOLM-13 Cell Proliferation",Compound 51 0.0001 μm + Midostaurin 0.5 μM,−0.02
same,"Effect size (BIGL, HSA null model), MOLM-13 Cell Proliferation",Compound 51 0.001 μm + Decitabine 0.0015 μM,−0.03
same,"Effect size (BIGL, HSA null model), MOLM-13 Cell Proliferation",Compound 51 0.001 μm + Decitabine 0.015 μM,−0.07
same,"Effect size (BIGL, HSA null model), MOLM-13 Cell Proliferation",Compound 51 0.001 μm + Decitabine 0.15 μM,−0.03
same,"Effect size (BIGL, HSA null model), MOLM-13 Cell Proliferation",Compound 51 0.001 μm + Decitabine 1.5 μM,−0.03
same,"Effect size (BIGL, HSA null model), MOLM-13 Cell Proliferation",Compound 51 0.001 μm + Decitabine 3 μM,−0.02
same,"Effect size (BIGL, HSA null model), MOLM-13 Cell Proliferation",Compound 51 0.001 μm + Idarubicin 0.0005 μM,−0.03
same,"Effect size (BIGL, HSA null model), MOLM-13 Cell Proliferation",Compound 51 0.001 μm + Idarubicin 0.001 μM,−0.07
same,"Effect size (BIGL, HSA null model), MOLM-13 Cell Proliferation",Compound 51 0.001 μm + Idarubicin 0.0025 μM,0.04
same,"Effect size (BIGL, HSA null model), MOLM-13 Cell Proliferation",Compound 51 0.001 μm + Idarubicin 0.005 μM,−0.1
same,"Effect size (BIGL, HSA null model), MOLM-13 Cell Proliferation",Compound 51 0.001 μm + Idarubicin 0.05 μM,0.02
same,"Effect size (BIGL, HSA null model), MOLM-13 Cell Proliferation",Compound 51 0.001 μm + Idarubicin 0.5 μM,0.02
same,"Effect size (BIGL, HSA null model), MOLM-13 Cell Proliferation",Compound 51 0.001 μm + Midostaurin 0.0012 μM,−0.03
same,"Effect size (BIGL, HSA null model), MOLM-13 Cell Proliferation",Compound 51 0.001 μm + Midostaurin 0.006 μM,−0.02
same,"Effect size (BIGL, HSA null model), MOLM-13 Cell Proliferation",Compound 51 0.001 μm + Midostaurin 0.025 μM,0.07
same,"Effect size (BIGL, HSA null model), MOLM-13 Cell Proliferation",Compound 51 0.001 μm + Midostaurin 0.05 μM,−0.06
same,"Effect size (BIGL, HSA null model), MOLM-13 Cell Proliferation",Compound 51 0.001 μm + Midostaurin 0.1 μM,−0.04
same,"Effect size (BIGL, HSA null model), MOLM-13 Cell Proliferation",Compound 51 0.001 μm + Midostaurin 0.5 μM,−0.02
same,"Effect size (BIGL, HSA null model), combination with Gilteritinib on MOLM-13 cell proliferation","Compound 51 0.001 μm, Gilteritinib 0.0005 μM",−0.01
same,"Effect size (BIGL, HSA null model), combination with Gilteritinib on MOLM-13 cell proliferation","Compound 51 0.001 μm, Gilteritinib 0.005 μM",−0.06
same,"Effect size (BIGL, HSA null model), combination with Gilteritinib on MOLM-13 cell proliferation","Compound 51 0.001 μm, Gilteritinib 0.01 μM",−0.1
same,"Effect size (BIGL, HSA null model), combination with Gilteritinib on MOLM-13 cell proliferation","Compound 51 0.001 μm, Gilteritinib 0.05 μM",−0.02
same,"Effect size (BIGL, HSA null model), combination with Gilteritinib on MOLM-13 cell proliferation","Compound 51 0.001 μm, Gilteritinib 0.1 μM",0.02
same,"Effect size (BIGL, HSA null model), combination with Gilteritinib on MOLM-13 cell proliferation","Compound 51 0.001 μm, Gilteritinib 1 μM",−0.01
same,"Effect size (BIGL, HSA null model), MOLM-13 Cell Proliferation",Compound 51 0.01 μm + Decitabine 0.0015 μM,0
same,"Effect size (BIGL, HSA null model), MOLM-13 Cell Proliferation",Compound 51 0.01 μm + Decitabine 0.015 μM,−0.09
same,"Effect size (BIGL, HSA null model), MOLM-13 Cell Proliferation",Compound 51 0.01 μm + Decitabine 0.15 μM,−0.16
same,"Effect size (BIGL, HSA null model), MOLM-13 Cell Proliferation",Compound 51 0.01 μm + Decitabine 1.5 μM,−0.05
same,"Effect size (BIGL, HSA null model), MOLM-13 Cell Proliferation",Compound 51 0.01 μm + Decitabine 3 μM,−0.02
same,"Effect size (BIGL, HSA null model), MOLM-13 Cell Proliferation",Compound 51 0.01 μm + Idarubicin 0.0005 μM,−0.35
same,"Effect size (BIGL, HSA null model), MOLM-13 Cell Proliferation",Compound 51 0.01 μm + Idarubicin 0.001 μM,−0.73
same,"Effect size (BIGL, HSA null model), MOLM-13 Cell Proliferation",Compound 51 0.01 μm + Idarubicin 0.0025 μM,−0.26
same,"Effect size (BIGL, HSA null model), MOLM-13 Cell Proliferation",Compound 51 0.01 μm + Idarubicin 0.005 μM,−0.11
same,"Effect size (BIGL, HSA null model), MOLM-13 Cell Proliferation",Compound 51 0.01 μm + Idarubicin 0.05 μM,0.02
same,"Effect size (BIGL, HSA null model), MOLM-13 Cell Proliferation",Compound 51 0.01 μm + Idarubicin 0.5 μM,0.02
same,"Effect size (BIGL, HSA null model), MOLM-13 Cell Proliferation",Compound 51 0.01 μm + Midostaurin 0.0012 μM,0.01
same,"Effect size (BIGL, HSA null model), MOLM-13 Cell Proliferation",Compound 51 0.01 μm + Midostaurin 0.006 μM,−0.06
same,"Effect size (BIGL, HSA null model), MOLM-13 Cell Proliferation",Compound 51 0.01 μm + Midostaurin 0.025 μM,0.1
same,"Effect size (BIGL, HSA null model), MOLM-13 Cell Proliferation",Compound 51 0.01 μm + Midostaurin 0.05 μM,−0.06
same,"Effect size (BIGL, HSA null model), MOLM-13 Cell Proliferation",Compound 51 0.01 μm + Midostaurin 0.1 μM,−0.04
same,"Effect size (BIGL, HSA null model), MOLM-13 Cell Proliferation",Compound 51 0.01 μm + Midostaurin 0.5 μM,−0.02
same,"Effect size (BIGL, HSA null model), combination with Gilteritinib on MOLM-13 cell proliferation","Compound 51 0.01 μm, Gilteritinib 0.0005 μM",0.01
same,"Effect size (BIGL, HSA null model), combination with Gilteritinib on MOLM-13 cell proliferation","Compound 51 0.01 μm, Gilteritinib 0.005 μM",−0.08
same,"Effect size (BIGL, HSA null model), combination with Gilteritinib on MOLM-13 cell proliferation",[1],−0.25
same,"maxR call (synergy/antagonism), combination with Gilteritinib on MOLM-13 cell proliferation",[1],**
same,"Effect size (BIGL, HSA null model), combination with Gilteritinib on MOLM-13 cell proliferation","Compound 51 0.01 μm, Gilteritinib 0.05 μM",−0.09
same,"Effect size (BIGL, HSA null model), combination with Gilteritinib on MOLM-13 cell proliferation","Compound 51 0.01 μm, Gilteritinib 0.1 μM",0.1
same,"Effect size (BIGL, HSA null model), combination with Gilteritinib on MOLM-13 cell proliferation","Compound 51 0.01 μm, Gilteritinib 1 μM",−0.01
same,"Effect size (BIGL, HSA null model), MOLM-13 Cell Proliferation",Compound 51 0.05 μm + Decitabine 0.0015 μM,−0.03
same,"Effect size (BIGL, HSA null model), MOLM-13 Cell Proliferation",[2],−0.13
same,"Synergy/antagonism call (maxR test), MOLM-13 Cell Proliferation",[2],**
same,"Effect size (BIGL, HSA null model), MOLM-13 Cell Proliferation",[3],−0.32
same,"Synergy/antagonism call (maxR test), MOLM-13 Cell Proliferation",[3],**
same,"Effect size (BIGL, HSA null model), MOLM-13 Cell Proliferation",Compound 51 0.05 μm + Decitabine 1.5 μM,−0.05
same,"Effect size (BIGL, HSA null model), MOLM-13 Cell Proliferation",Compound 51 0.05 μm + Decitabine 3 μM,−0.03
same,"Effect size (BIGL, HSA null model), MOLM-13 Cell Proliferation",Compound 51 0.05 μm + Idarubicin 0.0005 μM,−0.1
same,"Effect size (BIGL, HSA null model), MOLM-13 Cell Proliferation",[4],−0.41
same,"Synergy/antagonism call (maxR test), MOLM-13 Cell Proliferation",[4],**
same,"Effect size (BIGL, HSA null model), MOLM-13 Cell Proliferation",Compound 51 0.05 μm + Idarubicin 0.0025 μM,−0.23
same,"Effect size (BIGL, HSA null model), MOLM-13 Cell Proliferation",Compound 51 0.05 μm + Idarubicin 0.005 μM,−0.11
same,"Effect size (BIGL, HSA null model), MOLM-13 Cell Proliferation",Compound 51 0.05 μm + Idarubicin 0.05 μM,0.02
same,"Effect size (BIGL, HSA null model), MOLM-13 Cell Proliferation",Compound 51 0.05 μm + Idarubicin 0.5 μM,0.02
same,"Effect size (BIGL, HSA null model), MOLM-13 Cell Proliferation",Compound 51 0.05 μm + Midostaurin 0.0012 μM,−0.03
same,"Effect size (BIGL, HSA null model), MOLM-13 Cell Proliferation",[5],−0.21
same,"Synergy/antagonism call (maxR test), MOLM-13 Cell Proliferation",[5],**
same,"Effect size (BIGL, HSA null model), MOLM-13 Cell Proliferation",Compound 51 0.05 μm + Midostaurin 0.025 μM,−0.14
same,"Effect size (BIGL, HSA null model), MOLM-13 Cell Proliferation",Compound 51 0.05 μm + Midostaurin 0.05 μM,0.08
same,"Effect size (BIGL, HSA null model), MOLM-13 Cell Proliferation",Compound 51 0.05 μm + Midostaurin 0.1 μM,−0.04
same,"Effect size (BIGL, HSA null model), MOLM-13 Cell Proliferation",Compound 51 0.05 μm + Midostaurin 0.5 μM,−0.02
same,"Effect size (BIGL, HSA null model), combination with Gilteritinib on MOLM-13 cell proliferation","Compound 51 0.05 μm, Gilteritinib 0.0005 μM",−0.03
